Assay results from BindingDB's records for patent US10844032 (Vanderbilt University, 2020).

Target: T1, Induced myeloid leukemia cell differentiation protein Mcl-1 [172-327] (Homo sapiens, UniProt Q07820)
T1 construct: 172-327
Experiment: Binding Assay

T1 sequence (Q07820 172-327): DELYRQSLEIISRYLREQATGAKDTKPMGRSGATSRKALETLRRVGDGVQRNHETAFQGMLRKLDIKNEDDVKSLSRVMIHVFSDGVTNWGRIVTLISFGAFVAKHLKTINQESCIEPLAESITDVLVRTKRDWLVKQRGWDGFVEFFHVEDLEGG

| Ki [nM] | Structure (SMILES) |
| --- | --- |
| < 100 | Cc1cc(OCCCc2c(C(=O)NS(=O)(=O)c3ccccc3)[nH]c3c(-c4c(COc5ccccn5)nn(C)c4C)cccc23)cc(C)c1Cl [US10844032, Example 306] |
| < 100 | Cc1cc(OCCCc2c(C(=O)NS(=O)(=O)c3ccccc3)[nH]c3c(-c4c(COc5cccnc5)nn(C)c4C)cccc23)cc(C)c1Cl [US10844032, Example 307] |
